Values of other authors as cited in article PMC9298787 (The Prostate, 2021).
Values joined by “and” are separate entries in the source; they are usually repeats but may differ in a detail not shown here. Equal entries are not always repeated.

Conditions: single oral 160 mg enzalutamide, fasting, three matched healthy controls

What does the source list for `CNC(=O)c1ccc(N2C(=S)N(c3ccc(C#N)c(C(F)(F)F)c3)C(=O)C2(C)C)cc1F` [enzalutamide]?
AUC0‐∞: 245.8 µg·h/mL and 224.8 µg·h/mL; Cmax: 3800 ng/mL and 4600 ng/mL; t1/2: 115.3 h and 108.3 h and 111.6 h
